In PubChem BioAssay (NCI):
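Results reflect a 48-hour exposure of cells in 96-well plates to compound at five concentrations. At the TGI there is no net growth.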

Tests used:
Assay in all cases: NCI tumour cell line growth inhibition, 48 h
MOLT-4 leukemia = system: MOLT-4 leukemia
SR leukemia = system: SR leukemia
COLO 205 colon = system: COLO 205 colon
SF-268 CNS = system: SF-268 CNS
M14 melanoma = system: M14 melanoma
HS 578T breast = system: HS 578T breast
CAKI-1 renal = system: CAKI-1 renal
NCI-H522 lung = system: NCI-H522 lung
NCI-H226 lung = system: NCI-H226 lung
OVCAR-8 ovarian = system: OVCAR-8 ovarian

Structure (SMILES) | TGI (MOLT-4 leukemia) [µM] | TGI (SR leukemia) [µM] | TGI (COLO 205 colon) [µM] | TGI (SF-268 CNS) [µM] | TGI (M14 melanoma) [µM] | TGI (HS 578T breast) [µM] | TGI (CAKI-1 renal) [µM] | TGI (NCI-H522 lung) [µM] | TGI (NCI-H226 lung) [µM] | TGI (OVCAR-8 ovarian) [µM]
CCCCC(=C=C(C)CO)C1CCCN1C(=O)OC(C)(C)C (stereo not given) | 33.8 | 31.5 | 32.9 | 33.5 | 35.4 | 30.4 | 61.5 | 29 | 33.9 | 37.3
O=S(c1ccccc1)C1CC2CC3(CCC21O)OCCO3 (stereo not given) | > 100 | > 100 | > 100 | > 100 | > 100 | > 100 | > 100 | > 100 | > 100 | > 100
COc1cc(S(=O)(=O)Nc2ccc(-c3csc(N4C(=O)C(Cl)C4c4cccc(Oc5ccccc5)c4)n3)cc2)ccc1Cl (stereo not given) | > 100 | > 100 | 45.5 | 28.3 | 52.4 | > 100 | 41.8 | 3.22 | 39.8 | > 100
O=C(CNc1nccs1)Nn1cnc2ccc(S(=O)(=O)Nc3nccs3)cc2c1=O | > 100 | > 100 | > 100 | > 100 | > 100 | > 100 | > 100 | > 100 | > 100 | > 100
N#CCCN(CCC#N)c1ccc(/C=C2\SC(=S)NC2=O)cc1 | > 100 | > 100 | > 100 | > 100 | > 100 | > 100 | 59.7 | > 100 | > 100 | > 100
Oc1cc(O)c2c(c1)O[C@H](c1cc(O)c(O)c(O)c1)[C@@H](O)C2 | > 10 | 39.1 | 35.8 | 58.7 | 57.6 | > 100 | > 100 | 35.1 | 86.5 | 31.1
O=C(N/N=C\c1cccs1)c1ccncc1 | > 100 | > 100 | > 100 | > 100 | > 100 | > 100 | > 100 | > 100 | > 100 | > 100
Cc1ccc(/C(O)=C/c2nc3cccnc3[nH]c2=O)cc1 | > 100 | > 100 | > 100 | > 100 | > 100 | > 100 | > 100 | > 100 | > 100 | > 100
Cc1nc(N)sc1C(=O)Nc1ncn[nH]1 | > 100 | 70 | > 100 | > 100 | > 100 | > 100 | > 100 | > 100 | > 100 | > 100
C/C(=N/NC(=S)N(C)C)c1ccccc1O | 97.7 | > 39.5 | > 58.6 | > 38.2 | 23.4 | > 100 | > 100 | > 100 | > 66.3 | > 74.4
N#C/C(=C/n1c(=S)[nH]c2ccccc21)C(N)=O | > 100 | > 100 | > 100 | > 100 | > 100 | > 100 | > 100 | > 100 | > 100 | > 100
CC(C)NCC(O)c1ccc(O)c2ncccc12 (stereo not given) | 46.9 | 67.6 | 36.4 | > 100 | > 100 | > 100 | > 100 | > 100 | > 100 | > 100
CSc1c2c(C)n[nH]c2nn1-c1ccccc1 | > 100 | > 100 | > 100 | > 100 | > 100 | > 100 | 87.4 | > 100 | > 100 | > 100
COc1ccc(OC)c(NC2=NCCO2)c1 | > 100 | > 100 | > 100 | > 100 | > 100 | > 100 | 28.8 | > 100 | > 100 | > 100
CCOC(=O)C1(C#N)C2(C#N)C(N)=NC(ON=C(C)C)(ON=C(C)C)C12C#N (stereo not given) | > 100 | > 100 | > 100 | > 100 | > 100 | > 100 | > 100 | > 100 | > 100 | > 100
C/C(=N/NC(=S)Nc1cccc(Cl)c1)c1ccccn1 | 1.47 | 1.99 | 5.18 | 12.5 | 3.82 | 10.1 | 11.8 | 2.41 | 2.59 | 9.29
c1ccc(C(c2cccc3c2ccc2ccccc23)C(c2ccccc2)c2cccc3c2ccc2ccccc23)cc1 (stereo not given) | > 100 | > 100 | > 100 | > 100 | > 100 | > 100 | > 100 | > 100 | > 100 | > 100
COC1=CC(=O)c2c(cc(COP(N)(=O)N(CCCl)CCCl)n2C)C1=O (stereo not given) | 0.382 | 1.31 | 3.08 | 2.34 | 2.74 | > 100 | < 0.0478 | 0.802 | 1.32 | 3.2
COc1cc(NS(C)(=O)=O)ccc1NCc1cnc2ccc3[nH]cccc3c12 | 22.1 | 28 | 31.3 | 55.3 | 31.4 | 47.5 | > 72.7 | 39.9 | 35.6 | 75.7
CC(C)(C)c1ccc(O)c(C(c2ccc([N+](=O)[O-])cc2)c2cc(C(C)(C)C)ccc2O)c1 | 5.14 | 5.47 | 5.8 | 3.16 | 3.16 | 18.7 | 2.88 | 4.32 | 3.51 | 7.82
CC(C(=O)NCCNC(=O)CCC(=O)N(C)O)C(=O)NCCNC(=O)CCC(=O)N(C)O | > 100 | > 100 | > 100 | > 100 | > 100 | > 100 | > 100 | > 100 | > 100 | > 100
